We go through 1 compound from patent US20250268931A1, “TRANSCRIPTIONAL INHIBITOR FOR IMMUNE-RELATED GENE” (The University of Tokyo, priority 2022, published 2025).

As usually defined, the Kd is the constant that tells how readily two partners part at equilibrium. A low value points to tighter binding.

One data set relates to peritoneal macrophages. In words: Cytotoxic activity: dsDNA concentration and LDH activity in culture supernatant. It is filed as cell-based, mice. On the procedure: (§1) In order to verify the cytotoxic activity of IRF-PIPA 3, dsDNA concentration (left view in the figure) and LDH concentration (right view in the figure) in the culture supernatant were measured. The same experiment as that in FIG. 2 was carried out, and the culture supernatant was recovered. A lysate obtained by mixing 2.5×10^5 peritoneal macrophages with 90 μL of 10% FBS-RPMI or D-MEM medium and 10 μL of Lysis Buffer, and then disrupting the cells, was used as a positive control. […] Using Octet K2, the binding of each concentration of IRF-PIPA 3 shown in the figure and a target DNA sequence was analyzed. After mixing a PIPA solution with target DNA, the binding of the two substances was measured for 60 seconds. […] From changes in the binding and dissociation at each concentration over time, a Kd value was calculated as a dissociation constant indicating a binding force.
The concentration of dsDNA in the culture supernatant was measured using Nano drop one (Thermo Fisher SCIENTIFIC). In LDH assay, LDH activity was measured using Cytotoxicity LDH Assay Kit-WST (DOJINDO LABORATORIES) according to standard protocols. As a positive control, a lysate obtained by mixing 2.5×10^5 peritoneal macrophages with 90 μL of 10% FBS-RPMI or D-MEM medium and 10 μL of Lysis Buffer, and then disrupting the cells, was used.

For data set [1], the system named is Ifnb1, Il6, and Tnf genes. In words: Relative mRNA expression in Poly(I:C)-stimulated peritoneal macrophages (qRT-PCR). It is filed as cell-based, mice. Particulars: 6 μM 24 h, Poly(I:C) 1 μg/mL 2, 4 or 6 h, qRT-PCR relative to GAPDH. As for the experimental part:
Using PBS, peritoneal macrophages were harvested from mice, and were then seeded on a 96-well plate at a cell density of 2.5×10^5 cells/well, followed by culturing for 2 hours. Thereafter, the cultured cells were washed twice with PBS. IRF-PIPA 3 was suspended in a 10% FBS-RPMI or MEM medium to a final concentration of 6 μM, and the obtained suspension was then added to the cells. After completion of the culture for 24 hours, Poly(I:C) was added to the cultured cells to a final concentration of 1 μg/mL. The obtained mixture was cultured for 2, 4, or 6 hours, and the cells were recovered. Using TRIsure, the recovered cells were suspended at 100 µL/well and was then recovered. Thereafter, the relative expression levels of Ifnb1, Il6, and Tnf genes were measured by qRT-PCR.
Mouse peritoneal macrophages were harvested from 6-week-old CL57B/6 mice (CLEA Japan, Inc.) by peritoneal lavage using 7 mL of PBS (Nacalai Tesque), and the cells adhered to the culture plate by culture for 2 hours were used in experiments. The culture was carried out using an RPMI or D-MEM medium (Nacalai Tesque) containing 10% FBS (SIGMA-ALDRICH) and Penicillin-Streptomycin mixed solution (Nacalai Tesque). The CL57B/6 mice were bred in an SPF environment.
2.5×10^5 Peritoneal macrophages were seeded on a plate, and were then treated with IRF-PIPA 3 for 24 hours. […]

Data set [2] deals with DNA sequence (GAAAGTG C GAAAGTG C GAAAGTG C: SEQ ID No: 28). In words: Binding to target DNA sequence, Octet K2. The note with it: Octet K2, 10 to 320 nM, binding and dissociation 60 seconds each, biotin-labeled target sequence. As for the experimental part: as §1, with “force. The analysis was performed using Octet K2 (ForteBio) according to standard protocols. A streptavidin-conjugated sensor (ForteBio) was used, and a biotin-labeled target sequence (FASMAC) was allowed to bind to the sensor. Further, according to standard protocols, the binding of 10 to 320 nM IRF-PIPA 3 and the target sequence, and dissociation thereof were analyzed for 60 seconds each.” for “force.”
In general terms: BLI is a label-free optical method that tracks binding on a fibre tip over time.

The mark [3] stands for this setting: peritoneal macrophages, same experiment as FIG. 2 (3 or 10 μM).

`CC(=O)Nc1cn(C)c(C(=O)Nc2cc(C(=O)NCCC(=O)Nc3cc(C(=O)Nc4cn(C)c(C(=O)NCCC(=O)Nc5cn(C)c(C(=O)NCCCC(=O)Nc6cc(C(=O)Nc7cc(C(=O)Nc8cc(C(=O)NCCC(=O)Nc9cc(C(=O)Nc%10cc(C(=O)NCCC(=O)NCCCN(C)C)n(C)c%10)n(C)c9)n(C)c8)n(C)c7)n(C)c6)n5)n4)n(C)c3)n(C)c2)n1` [IRF-PIPA 3]: the cytotoxic activity result in the data set on peritoneal macrophages (concentration range in which IRF-PIPA 3 shows strong suppressive action) is given as “does not exhibit cytotoxic activity”. In addition, in the data set on peritoneal macrophages (setting [3]), the “LDH activity in the culture supernatant” value was “not increased at all” and the “amount of DNA in the culture supernatant” value is recorded as “not increased at all”. Besides, the “relative expression level of Ifnb1 mRNA” value in data set [1] is “strongly suppressed induction of the expression of Ifnb1 mRNA in a concentration-dependent manner”. Moreover, in data set [2], the Kd was 22.7 nM.
